# Test results published in US9895370B2, “Pharmaceutical composition for preventing or treating of cirrhosis of liver comprising G protein coupled receptor 119 ligand as an active ingredient” (DONGGUK UNIVERSITY INDUSTRY—ACADEMIC COOPERATION FOUNDATION, priority 2015, dated 2018).
# Tests used:
# [1] = system: C57BL/6 mice with liver fibrosis induced by carbon tetrachloride; experiment: carbon tetrachloride (CCl4)-induced liver fibrosis animal model; type: in vivo, mouse; conditions: blood
# Protocol: 6-week-old male C57BL/6J mice (Joongang laboratory animal, Seoul) were acclimated in a laboratory environment for 1 week with solid feed, and randomly arranged in control groups and experimental groups according to randomized block design. Then, carbon tetrachloride (1 ml/kg) was administered to 6-week-old male C57BL/6 mice (Joongang laboratory animal, Seoul) twice a week for three weeks to induce liver fibrosis, and a GPR119 ligand (10 mg/kg) suspended in 40% PEG400 was orally administered thereto once a day for five days per week. For liver fibrosis models induced by dimethylnitrosamine (DMN), DMN (10 mg/kg) was administered to mice three times a week to induce liver fibrosis. As the control group, a vehicle-treated group was used. After termination of the experiment, the laboratory animals were fasted for 12 hours or more, and anesthetized with Zoletil to obtain blood and the liver, and the liver was washed with 0.1 M phosphate buffered saline (PBS; pH 7.4) and weighed. The blood obtained from the abdominal aorta was centrifuged in an SST tube at 3000×RPM for 20 minutes to isolate the serum.
# For the above-mentioned laboratory animals, serum alanine transaminase (ALT), aspartate transaminase (AST), total bilirubin (T-BIL) and direct bilirubin (D-BIL) were analyzed using an automated hematology analyzer, Spectrum [(Abbott Laboratories, Abbott Park, Ill.)].
# The liver samples obtained as described above were prepared into sections, and the tissue section was fixed with 10% buffered neutral formalin and embedded in paraffin. Afterward, the resulting section was sliced to a 4-μm thickness, and put on a slide to fix a specimen, stained with sirius red, and observed using an optical microscope.
# A predetermined amount of liver tissue was homogenized in a mortar with liquid nitrogen and a lysis buffer, and the resulting tissue solution was transferred into a new tube and then vortexed. The tissue solution was centrifuged at 14,000 rpm and 4° C. for 20 minutes, and the intermediate layer was extracted to quantify a protein by a Bradford method. 30 μg of proteins were analyzed by electrophoresis using an SDS polyacrylamide gel, and the change of protein expression was analyzed by western blot.
# To examine improvement of liver fibrosis by the GPR119 ligand, in an animal model having liver fibrosis induced by carbon tetrachloride (CCl4), an effect of the GPR119 ligand on inhibiting liver fibrosis was observed.
# First, 1 ml/kg of carbon tetrachloride was intraperitoneally administered twice a week, and also orally administered with the GPR119 ligand (MBX-2982) at doses of 20 and 40 mg/kg, respectively, once a day for 5 days a week. Three weeks later, liver tissue was extracted, subjected to sirius red staining for confirming collagen production and immunohistochemical staining for confirming expression of a HSC activation marker, that is, α-SMA, and then compared with a control group and a carbon tetrachloride only-treated group.
# p300 = p300 protein and mRNA expression in LX-2; type: cell-based, human
# Protocol: (§1) A human HSC line (LX-2, Milipore, U.S.A.) was plated in a 6-well plate, and grown to confluency in DMEM supplemented with 1% penicillin-streptomycin (Hyclone, U.S.A.) and 2% fetal bovine serum (Hyclone, U.S.A.) at 37° C. in a 5% CO2 incubator. For a further experiment, the confluent HSC line was incubated in an FBS-free medium, instead of the 2% FBS-added medium.
# (§2) Sodium dodecylsulfate-polyacrylamide gel electrophoresis (SDS-PAGE) was performed using a gel electrophoresis device (Mighty Small SE 250, Hoefer Scientific Instruments, San Francisco) according to the method established by the inventors. A lysed cell fraction was diluted with a sample dilution buffer [63 mM Tris (pH. 6.8), 10% glycerol, 2% SDS, 0.0013% bromophenol blue, 5% β-mercaptoethanol], and subjected to electrophoresis in an electrode buffer (15 g Tris, 72 g glycerin and 5 g SDS contained in an 1 L solution) using a 8-12% gel. After electrophoresis, the gel was transferred to a nitrocellulose membrane to transfer proteins using an electrophoresis device for transfer in a transfer buffer (25 mM Tris, 192 mM glycerin, 20% v/v methanol (pH. 8.3)] at 40 mA for 3 hours. The nitrocellulose membrane was reacted with first antibodies, reacted with horseradish peroxidase-conjugated goat anti-rabbit IgG and horseradish peroxidase-conjugated goat anti-mouse IgG as secondary antibodies for 1 hour, and visualized using an ECL chemiluminescence system (Amersham, Gaithesberg, Mass.).
# Thereafter, in the present invention, the influence of the GPR119 ligand on p300 expression was observed. […] From the result, it was assumed that a decrease in the expression of the p300 protein due to the GPR119 ligand could be caused by proteasomal degradation, and therefore the expression of the p300 protein was observed using a proteasome inhibitor, which is MG132.
# [2] = system: mouse embryonic fibroblasts (MEFs); experiment: collagen I and α-SMA protein expression in mouse embryonic fibroblasts (western blot); type: cell-based; conditions: FIG. 2b
# Protocol: as §2
# HSC line LX-2 = experiment: PDGF-induced HSC proliferation in LX-2; type: cell-based, human; conditions: FIG. 5a
# Protocol: as §1
# mouse HSCs = experiment: col1A1 mRNA expression in primary cultured mouse HSCs during in vitro culture-induced activation; type: cell-based; conditions: treated on day 1, 3 and 5, FIG. 2a
# Protocol: HSCs were isolated from a male C57BL/6 mouse, a male GPR119 WT mouse and a GPR119 KO mouse. More specifically, each mouse was anesthetized to perform an abdominal incision, a cannula was inserted into the hepatic portal vein to introduce a gas mixture of 5% CO2 and 95% 02, and then Ca^2+, Mg^2+-free Hank's balanced salt solution was injected into the cannula at 37° C. to remove blood in the liver. Afterward, a 0.1% collagenase type IV (Sigma, U.S.A.) solution was injected. The liver tissue was detached from the body and prepared in a liver cell suspension, and following centrifugation at 1000×g for 10 minutes, a precipitated cell layer was obtained by floating HSCs to isolate through a density gradient method using Nycodenz. The isolated HSCs were cultured in high glucose Dulbecco's Modified Eagle's Medium (DMEM) containing 10% fetal bovine serum, 50 U/ml penicillin and […] streptomycin at 37° C. in 5% CO2.
# Total RNA ([…]) extracted from cells using Trizol and a Maxime RT PreMix Kit (iNtRON Biotechnology, Gyeonggi-do, Korea) was used to obtain cDNA. […]
# Meanwhile, for real-time RT-qPCR, the synthesized cDNA was assessed in a CFX Connect™ Real-Time PCR Detection System (Bio-Rad Laboratories, CA, USA) instrument using a SYBR green dye (Bio-Rad). […]
# Smad3 and p300 = experiment: Smad3-p300 interaction, Smad3 acetylation and AMPK-p300 binding in LX-2 (immunoprecipitation); type: cell-based, human
# Protocol: as §1
# Total fraction protein was reacted with corresponding antibodies at 4° C. for 12 hours or more. An antigen-antibody conjugate was reacted with protein G-agarose at 4° C. for 2 hours to precipitate, and then reacted with 2× Laemmli buffer. The extracted protein was observed by an immunochemical method.
# According to existing reports, AMPK activation in HSCs inhibits the interaction between Smad3 and p300 and inhibits the expression of a liver fibrosis-inducing factor through elevation of proteasomal degradation of the transcriptional coactivator p300. Thus, the influence of the GPR119 ligand on the interaction between Smad2/Smad3 and p300 was examined.
# Subsequently, in the present invention, a mechanism for inhibiting the Smad-p300 interaction due to AMPK activation was investigated.
# [3] = system: AMP-activated protein kinase (AMPK); experiment: AMPK activation (AMPK and ACC phosphorylation) in LX-2; type: cell-based, human; conditions: LX-2, time-dependent treatment; FIG. 4b
# Protocol: as §1
# Sodium dodecylsulfate-polyacrylamide gel electrophoresis (SDS-PAGE) was performed using a gel electrophoresis device (Mighty Small SE 250, Hoefer Scientific Instruments, San Francisco) according to the method established by the inventors. A lysed cell fraction was diluted with a sample dilution buffer [63 mM Tris (pH. 6.8), 10% glycerol, 2% SDS, 0.0013% bromophenol blue, 5% β-mercaptoethanol], and subjected to electrophoresis in an electrode buffer (15 g Tris, 72 g glycerin and 5 g SDS contained in an 1 L solution) using a 8-12% gel. […]
# [4] = LX-2 treated with ligand alone, FIG. 4h
compound,measurement,setting,value
"CCc1cnc(N2CCC(c3nc(COc4ccc(-n5cnnn5)cc4)cs3)CC2)nc1 [MBX-2982, 4-((4-(1H-tetrazol-1-yl)phenoxy)methyl)-2-(1-(5-ethylpyrimidin-2-yl)piperidin-4-yl)thiazole]",AST,[1]; CCl4 + MBX 20 (20 mg/kg oral),94.06 U/L
same,D-BIL,[1]; CCl4 + MBX 20 (20 mg/kg oral),0.11 mg/dL
same,T-BIL,[1]; CCl4 + MBX 20 (20 mg/kg oral),0.20 mg/dL
same,ALT,[1]; CCl4 + MBX 40 (40 mg/kg oral),32.06 U/L
same,AST,[1]; CCl4 + MBX 40 (40 mg/kg oral),68.11 U/L
same,D-BIL,[1]; CCl4 + MBX 40 (40 mg/kg oral),0.12 mg/dL
same,T-BIL,[1]; CCl4 + MBX 40 (40 mg/kg oral),0.23 mg/dL
same,expression of the p300 protein,p300; [4],reduced depending on the concentration
same,mRNA expression of p300,p300; [4],no influence
same,"expression of the p300 protein decreased by ligand, with proteasome inhibitor MG132","p300; with MG132 treatment, FIG. 4i",recovered
same,collagen I expression,[2],inhibited
same,α-SMA expression,[2],inhibited
same,HSC proliferation induced by PDGF,HSC line LX-2,inhibited
same,mRNA expression of collagen col1A1,mouse HSCs,considerably inhibited
same,Smad3 acetylation elevated by TGFβ1,"Smad3 and p300; LX-2, FIG. 4e",considerably inhibited
same,interaction between Smad3 and p300 elevated by TGFβ1,"Smad3 and p300; LX-2, FIG. 4e",considerably inhibited
same,binding of activated AMPK to p300,"Smad3 and p300; LX-2 treated with ligand alone, FIG. 4g",directly bound to p300
same,AMPK activation (AMPK and ACC phosphorylation),[3],highly activated
